Measurements reported in patent US20020138856A1, “Compositions and methods useful for treatment of depressive disorder based on an animal model” (Northwestern University, priority 1998, published 2002).
“Also recorded” adds a separate entry of the source.

Legend:
[1] = test system: WKY rats; details: chronic and subacute treatment (three times per day between first and third swim); cited from earlier work
[2] = test system: WMI rats; assay: Forced swim test (FST) immobility before and after drug administration, WMI rats; format: in vivo, rat; details: for effect on alleviating depression (FST immobility): desipramine administered three times within 24 hours
From the text: (§1) FIG. 6 is a graph depicting the immobility in the forced swim test of 14 week-old animals before and after administration of either desipramine, fluoxetine, or water in WMI and WLI animals. Shaded squares and circles indicate immobility after treatment, unshaded squares and circles indicate immobility before treatment, squares indicate WMI animals, and circles indicate WLI animals.
(§2) The main test of behavior in the rats of the invention is the FST. The general parameters governing this test are as follows, it being understood that variations of the test are permissible within acceptable bounds. The test utilizes a glass water tank 30 cm in diameter and 45 cm tall wherein the water level is 15 cm from the top and the water temperature is 25° C. The procedure for the test is adapted from Porsolt et al. and Detke et al., as described in Detke et al., 1995, Psychopharm. 121:66-72). Rats are individually placed in the water tank for 15 minutes and are then removed from the tank and returned to their cages. […] This 5 minute test session is recorded on videotape. The performance of the rat on the tape is analyzed and subsequently scored using the scoring system developed by Detke et al. (1995, Psychopharm. 121:66-72) by a trained observer, who is unaware as to the various treatment conditions of the rats. […] The following behaviors are recorded: immobility, swimming, and climbing. The rats are scored at 5 second intervals, thus, there are 12 intervals per minute sampled. […] By way of example, if a rat was scored as immobile at 13 of the […], the FST score would be 13. […]
(§3) The WMI and WLI rats of the invention are useful for screening compounds effective for modulation, preferably, alleviation of depression and other behavioral and depressive disorders. […] WMI and WLI rats are administered a test compound or a placebo at a dosage, a route of administration and for a period of time which is determined by the artisan skilled in such procedures, following standard protocols such as those described, for example, in Remington's Pharmaceutical Sciences, Mack Publishing Co., Easton, Pa., 1985. […]

[3] = test system: WLI rats; assay: Forced swim test (FST) immobility before and after drug administration, WLI rats; format: in vivo, rat
From the text: as §1, §2, §3

Row | Compound | effect on depressive behavior (immobility, struggling in forced swim test) [1] | immobility time in the forced swim test after administration ([2]; 14 week-old, before treatment about nineteen 5-second intervals, FIG. 6) | effect on alleviating depression (FST immobility) [2] | effect on alleviating depression (FST immobility) [3] | immobility time in the forced swim test after administration ([3]; 14 week-old, before treatment about nine 5-second intervals, change not significant, FIG. 6)
1 | CNCCCN1c2ccccc2CCc2ccccc21 [Desipramine, desipramine] | decreased the depressive behavior | about five | responsive; also recorded: effectively alleviated depression | do not respond; also recorded: resistant to treatment | about six
2 | CN(C)CCCN1c2ccccc2CCc2ccccc21 [imipramine] | decreased the depressive behavior | – | – | – | –
3 | CNCCC(Oc1ccc(C(F)(F)F)cc1)c1ccccc1 (centres unmarked) [Fluoxetine, fluoxetine] | – | – | virtually no effect | virtually no effect | –
